Assay results as given in paper PMC6254361, “The properties of Msh2–Msh6 ATP binding mutants suggest a signal amplification mechanism in DNA mismatch repair” (The Journal of Biological Chemistry, 2018).

Target: T1, Msh2–Msh6 (Saccharomyces cerevisiae, UniProt P25847+Q03834, P25847:K694M)
T1 sequence (P25847 1-964 K694M): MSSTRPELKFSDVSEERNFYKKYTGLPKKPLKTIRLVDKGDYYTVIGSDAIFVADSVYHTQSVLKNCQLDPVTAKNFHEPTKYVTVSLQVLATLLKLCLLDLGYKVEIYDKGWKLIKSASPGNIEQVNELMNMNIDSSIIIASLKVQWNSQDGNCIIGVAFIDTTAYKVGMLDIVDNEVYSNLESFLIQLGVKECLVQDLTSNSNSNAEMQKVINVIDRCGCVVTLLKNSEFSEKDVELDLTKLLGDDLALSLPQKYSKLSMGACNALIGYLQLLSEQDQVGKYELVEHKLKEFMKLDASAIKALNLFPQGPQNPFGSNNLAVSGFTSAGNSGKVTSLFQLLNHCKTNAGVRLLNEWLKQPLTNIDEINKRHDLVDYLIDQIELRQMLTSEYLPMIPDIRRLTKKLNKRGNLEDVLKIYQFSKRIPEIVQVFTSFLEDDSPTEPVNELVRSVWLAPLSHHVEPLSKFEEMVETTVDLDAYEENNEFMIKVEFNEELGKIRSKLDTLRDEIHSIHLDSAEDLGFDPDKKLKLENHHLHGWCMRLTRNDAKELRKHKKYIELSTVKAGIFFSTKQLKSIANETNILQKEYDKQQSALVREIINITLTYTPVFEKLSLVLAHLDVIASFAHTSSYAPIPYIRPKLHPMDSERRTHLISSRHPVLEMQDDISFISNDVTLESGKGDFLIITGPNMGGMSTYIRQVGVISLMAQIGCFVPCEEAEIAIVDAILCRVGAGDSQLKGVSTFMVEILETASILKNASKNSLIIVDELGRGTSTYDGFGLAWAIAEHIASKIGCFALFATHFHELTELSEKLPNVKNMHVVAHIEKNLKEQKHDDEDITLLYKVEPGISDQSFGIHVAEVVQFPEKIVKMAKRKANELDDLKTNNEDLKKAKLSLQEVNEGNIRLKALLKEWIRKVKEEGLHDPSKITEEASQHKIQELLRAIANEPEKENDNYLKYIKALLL
T1 sequence (Q03834 1-1242): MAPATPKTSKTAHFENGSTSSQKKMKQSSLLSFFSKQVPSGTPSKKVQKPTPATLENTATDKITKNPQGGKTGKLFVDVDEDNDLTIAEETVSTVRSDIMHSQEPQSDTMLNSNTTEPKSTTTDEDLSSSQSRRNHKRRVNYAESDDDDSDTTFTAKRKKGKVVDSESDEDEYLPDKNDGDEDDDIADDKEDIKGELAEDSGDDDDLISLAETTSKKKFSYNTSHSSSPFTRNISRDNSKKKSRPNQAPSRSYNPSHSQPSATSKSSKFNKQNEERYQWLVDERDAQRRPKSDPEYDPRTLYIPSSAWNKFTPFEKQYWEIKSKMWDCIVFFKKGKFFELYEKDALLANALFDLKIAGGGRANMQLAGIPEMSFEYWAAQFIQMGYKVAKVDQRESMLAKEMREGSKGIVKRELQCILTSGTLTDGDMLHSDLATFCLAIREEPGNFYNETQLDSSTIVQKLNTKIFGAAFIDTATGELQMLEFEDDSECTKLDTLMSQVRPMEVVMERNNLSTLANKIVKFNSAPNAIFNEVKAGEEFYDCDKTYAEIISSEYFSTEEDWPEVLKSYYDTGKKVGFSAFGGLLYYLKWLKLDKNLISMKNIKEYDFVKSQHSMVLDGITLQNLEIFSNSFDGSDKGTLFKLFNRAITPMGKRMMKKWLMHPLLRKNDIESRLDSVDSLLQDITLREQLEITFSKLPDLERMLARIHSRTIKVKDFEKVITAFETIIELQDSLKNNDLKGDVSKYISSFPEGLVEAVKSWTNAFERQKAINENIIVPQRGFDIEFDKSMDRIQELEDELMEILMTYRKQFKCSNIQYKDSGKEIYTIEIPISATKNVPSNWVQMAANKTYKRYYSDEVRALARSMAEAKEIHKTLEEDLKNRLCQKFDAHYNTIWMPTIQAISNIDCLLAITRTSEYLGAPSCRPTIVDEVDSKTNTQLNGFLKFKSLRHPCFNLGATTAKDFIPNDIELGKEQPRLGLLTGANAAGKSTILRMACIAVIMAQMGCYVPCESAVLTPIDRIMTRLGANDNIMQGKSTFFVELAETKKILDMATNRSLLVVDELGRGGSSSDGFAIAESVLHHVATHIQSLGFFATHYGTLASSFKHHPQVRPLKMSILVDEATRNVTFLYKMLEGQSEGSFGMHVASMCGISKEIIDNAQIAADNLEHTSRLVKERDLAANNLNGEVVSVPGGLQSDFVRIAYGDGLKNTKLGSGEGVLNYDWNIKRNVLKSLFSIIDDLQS
Assay: UV cross-linking of [γ-32P]ATP, SDS-PAGE, phosphorimaging
Format: binding
Details: labelled compound; no Mg2+, EDTA, pH 8, on ice; Msh2 site at 60 μM ATP, Msh6 site at 1 μM ATP

## Nc1ncnc2c1ncn2[C@@H]1O[C@H](COP(=O)(O)OP(=O)(O)OP(=O)(O)O)[C@@H](O)[C@H]1O [ATP]
  relative ATP binding: Msh2(K694M)–Msh6 mutant complex was only defective for binding ATP to the Msh2 subunit
